Patent US6329526A, “Cycloalkyl substituted imidazoles” (SmithKline Beecham Corporation, priority 1998, dated 2001)

Tests used:
human PGHS-2 = assay: PGHS-2 protein expression in LPS stimulated human monocytes; type: cell-based
Protocol: The following assay describes a method for determining the inhibitory effects of compounds of Formula (I) on human PGHS-2 protein expression in LPS stimulated human monocytes.
Method: Human peripheral blood monocytes were isolated from buffy coats by centrifugation through Ficoll and Percoll gradients. Cells were seeded at 2×10^6 /well in 24 well plates and allowed to adhere for 1 hour in RPMI supplemented with 1% human AB serum, 20 mM L-glutamine, Penicillin-Streptomycin and 10 mM HEPES. Compounds were added at various concentrations and incubated at 37° C. for 10 minutes. LPS was added at 50 ng/well (to induce enzyme expression) and incubated overnight at 37° C. The supernatant was removed and cells washed once in cold PBS. The cells were lysed in 100 μl of cold lysis buffer(50 mM Tris/HCl pH 7.5, 150 mM NaCl, 1% NP40, 0.5% sodium deoxycholate, 0.1% SDS, 300 ug/ml DNAse, 0.1% TRITON X-100, 1 mM PMSF, 1 mM leupeptin, 1 mM pepstatin). The lysate was centrifuged (10,000× g for 10 min. at 4° C.) to remove debris and the soluble fraction was subjected to SDS PAGE. analysis (12% gel). Protein separated on the gel were transferred onto nitrocellulose membrane by electrophoretic means for 2 hours at 60 volts. The membrane was pretreated for one hour in PBS/0.1% Tween 20 with 5% non-fat dry milk. After washing 3 times in PBS/Tween buffer, the membrane was incubated with a 1:2000 dilution of a monospecific antiserum to PGHS-2 or a 1:1000 dilution of an antiserum to PGHs-1 in PBS/Tween with 1% BSA for one hour with continuous shaking. The membrane was washed 3× in PBS/Tween and then incubated with a 1:3000 dilution of horseradish peroxidase conjugated donkey antiserum to rabbit Ig (Amersham) in PBS/Tween with 1% BSA for one hour with continuous shaking. The membrane was then washed 3× in PBS/Tween and the ECL immunodetection system (Amersham) was used to detect the level of expression of prostaglandin endoperoxide synthases-2.

CSBP2 = target: T1, CSBP2 (Homo sapiens, UniProt Q16539); assay: CSBP Kinase Assay (32P transfer to EGFR-derived peptide T669); type: biochemical
T1 construct: made in house; host or cells: yeast
T1 sequence (Q16539 whole entry): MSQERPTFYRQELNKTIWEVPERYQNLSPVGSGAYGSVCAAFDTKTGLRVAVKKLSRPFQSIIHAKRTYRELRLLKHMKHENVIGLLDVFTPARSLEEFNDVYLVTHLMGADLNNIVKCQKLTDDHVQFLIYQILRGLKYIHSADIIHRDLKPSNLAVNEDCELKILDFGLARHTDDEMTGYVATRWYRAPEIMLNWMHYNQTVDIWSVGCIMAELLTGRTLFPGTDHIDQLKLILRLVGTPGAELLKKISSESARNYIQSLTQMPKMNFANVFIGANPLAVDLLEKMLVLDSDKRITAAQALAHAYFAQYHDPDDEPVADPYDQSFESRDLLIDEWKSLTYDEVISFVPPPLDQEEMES
Protocol: Compounds (5 ul from [6X] stock^(2)) are pre-incubated with the enzyme and peptide for 20 min on ice prior to starting the reactions with 32P/MgATP. Reactions are incubated at 30° C. for 10 min and stopped by adding 10 ul of 0.3 M phosphoric acid. 32P-labeled peptide is separated on phosphocellulose (Wattman, p81) filters by spotting 30 ul reaction mixture. Filters are washed 3 times with 75 mM phosphoric acid followed by 2 washes with H2 O, and counted for 32P.

Interleukin-1 (IL-1) = assay: IL-1 production by LPS-stimulated human peripheral blood monocytes (IL-1 bioassay or ELISA); type: cell-based; conditions: LPS 50 ng/ml, 24 hours
Protocol: The cytokine-inhibiting effects of compounds of the present invention were determined by the following in vitro assays: Interleukin -1 (IL-1) Human peripheral blood monocytes are isolated and purified from either fresh blood preparations from volunteer donors, or from blood bank buffy coats, according to the procedure of Colotta et al, J Immunol, 132, 936 (1984). These monocytes (1×10^6) are plated in 24-well plates at a concentration of 1-2 million/ml per well. The cells are allowed to adhere for 2 hours, after which time non-adherent cells are removed by gentle washing. Test compounds are then added to the cells for about 1 hour before the addition of lipopolysaccharide (50 ng/ml), and the cultures are incubated at 37° C. for an additional 24 hours. At the end of this period, culture supernatants are removed and clarified of cells and all debris. Culture supernatants are then immediately assayed for IL-1 biological activity, either by the method of Simon et al., J. Immunol. Methods, 84, 85, (1985) (based on ability of IL-1 to stimulate a Interleukin 2 producing cell line (EL-4) to secrete IL-2, in concert with A23187 ionophore) or the method of Lee et al., J. ImmunoTherapy, 6 (1), 1-12 (1990) (ELISA assay).

Interleukin-8 (IL-8) = assay: IL-8 production by primary human umbilical cord endothelial cells (HUVEC), ELISA; type: cell-based; conditions: test compound between 1 and 10 μM
Protocol: Primary human umbilical cord endothelial cells (HUVEC) (Cell Systems, […], Wash.) are maintained in culture medium supplemented with 15% fetal bovine serum and 1% CS-HBGF consisting of aFGF and heparin. The cells are then diluted 20-fold before being plated (250 μl) into gelating coated 96-well plates. Prior to use, culture medium are replaced with fresh medium (200 μl). Buffer or test compound (25 μl, at concentrations between 1 and 10 μM) is then added to each well in quadruplicate wells and the plates incubated for 6h in a humidified incubator at 37° C. in an atmosphere of 5% CO2. At the end of the incubation period, supernatant is removed and assayed for IL-8 concentration using an IL-8 ELISA kit obtained from R&D Systems (Minneapolis, Minn.). All data is presented as mean value (ng/ml) of multiple samples based on the standard curve. IC50's where appropriate are generated by non-linear regression analysis.

[1] = test system: Tumour Necrosis Factor (TNF); assay: TNF production by LPS-stimulated human peripheral blood monocytes (radioimmunoassay or ELISA); type: cell-based; conditions: LPS 100 ng/ml, 16-18 hours

COc1ccc(C2CNC(=O)C2)cc1OC1CCCC1 (stereo not drawn) [rolipram]
inhibition of LPS induced PGHS-2 protein expression (human PGHS-2; up to 10 uM): inactive

O=C1CCN(c2ccccc2)N1 [phenidone]
inhibition of LPS induced PGHS-2 protein expression (human PGHS-2; up to 10 uM): inactive

CCOc1nccc(-c2c(-c3ccc(F)cc3)ncn2[C@H]2CC[C@H](O)CC2)n1 [Example 9, trans-1-(4-Hydroxycyclohexyl)-4-(4-fluorophenyl)-5-[(2-ethoxy)pyrimidine-4-yl]imidazole]
IC50 (CSBP2): < 50 µM

C[S+]([O-])c1ccc(-c2nc3n(c2-c2ccncc2)CCC3)cc1 (stereo not drawn) [2-(4-Methylsulfinylphenyl)-3-(4-pyridyl)-6,7-dihydro-(5H)-pyrrolo[1,2-a]imidazole]
inhibition of LPS induced PGHS-2 protein expression (human PGHS-2; up to 10 uM): inactive

C[S+]([O-])c1ccc(-c2nc(-c3ccc(F)cc3)c(-c3ccncc3)[nH]2)cc1 (stereo not drawn) [4-(4-Fluorophenyl)-2-(4-methylsulfinylphenyl)-5-(4-pyridyl)imidazole]
inhibition of LPS induced PGHS-2 protein expression (human PGHS-2; LPS stimulated human monocytes, rank order potency similar to that for inhibiting cytokine production): active

COc1nccc(-c2c(-c3ccc(F)cc3)ncn2[C@H]2CC[C@H](O)CC2)n1 [Example 2, trans-1-(4-Hydroxycyclohexyl)-4-(4-fluorophenyl)-5-[(2-methoxy)pyrimidin-4-yl]imidazole]
inhibitory activity against IL-1 (Interleukin-1 (IL-1)): positive inhibitory activity
inhibitory activity against IL-8 (Interleukin-8 (IL-8)): positive inhibitory activity
inhibitory activity against TNF [1]: positive inhibitory activity

CC(Cc1ccc(O)c(O)c1)C(C)Cc1ccc(O)c(O)c1 (stereo not drawn) [NDGA]
inhibition of LPS induced PGHS-2 protein expression (human PGHS-2; up to 10 uM): inactive
